Several values for one entry are separate records, joined by “and”; a condition that tells them apart may be missing. Identical values can stand only once. Like-named read-outs stand apart in the source and are kept apart here.
Assays:
Assay type in all cases: cell-based
[1] = tested on: HIV-1 replication in human PBM cells; assay: microbe, parasite or virus in culture
Procedure: Cells and viruses. […] Antimicrobial Agents Chemother 1992;36(11): 2423-2431.
Cell pellets were washed, centrifuged, lysed and the proviral DNA extracted as previously described. Cytotoxicity of the compounds was determined using the Promega Cell Titer 96 dye uptake assay (Madison, Wis.) in 1-2 day PHA-stimulated PBM cells after 5 days in culture. The median effective concentration (EC50) and inhibitory concentration (IC50) were derived from the computer-generated median effect plot of the dose-effect data, as described previously.

[2] = tested on: drug-resistant HIV-1 in PBMC; assay: microbe, parasite or virus in culture; conditions: PBMC; for EC50: Human immunodeficiency virus 1, PBMC
[3] = tested on: drug-resistant HIV-1 in MT-2; assay: microbe, parasite or virus in culture; conditions: for Fold-resistance: MT-2
[4] = tested on: drug-resistant HIV-1 in MT-4; assay: microbe, parasite or virus in culture
[5] = tested on: drug-resistant HIV-1 in HeLa HT4-6C; assay: microbe, parasite or virus in culture; conditions: for EC50: Human immunodeficiency virus 1, HeLa
[6] = tested on: recombinant HIV-1 virus isolates
Text: The aim of the study was to determine the potency of the inhibitory effect of a new generation of NRTIs on Multi Drug Resistant isolates and to compare it with their effect on wild-type HIV-1 isolates. All recombinant viruses were taken from the VIRCO repository of phenotypically and genotypically characterized virus isolates. Hirsch et al. Antiretroviral Drug Resistance Testing in Adults with HIV Infection. JAMA; 1998: 79(24) 1984-1991. See also Pauwels et al. Comprehensive HIV drug Resistance monitoring using rapid, high-throughput phenotypic and genotypic assays with correlative data analysis. Antiviral Therapy, 1998: 3: 35 Abstract 51.
Phenotypic drug susceptibility determination of recombinant virus isolates is described in Hertogs et al. A Rapid Method for Simultaneous Detection of Phentypic Resistance to Inhibitors of Protease and Reverse Transcriptase in Recombinant HIV-1 Isolates from Patients Treated with Antiretroviral Drugs. Antimicrob. Agents Chemother. 1998; 42(2): 269-276. The basic principle of the Antivirogram® technology is the construction of chimeric HIV-1 strains composed of the protease (PR) and reverse transcriptase (RT) gene sequences which are isolated and amplified from patient viral RNA. Amplicons are subsequently transfected into CD4+T cells together with a standard laboratory isogenic (HXB2) HIV-1 DNA construct from which the PR/RT gene sequences were deleted. After homologous recombination, new viruses whose diversity reflects the original population amplified from the plasma are produced at high level from these cells.
The virus infectivity (CCID50) is determined by an end-point dilution method. The titer is calculated from the degree of infection, measured by the intensity of reporter-gene signal as generated by serial dilutions of the virus shock. The chimeric (clinical isolates and wild-type reference) viruses are then analyzed for their phenotypic sensitivity (i.e. susceptibility) to the different PR and RT-inhibitors in an automated reporter gene-based assay using serial dilutions of the compound. The standardisation of the Antivirogram®n assay allows for simultaneous testing of all clinically approved drugs in one 384-well microtiter plate. The experimental drugs are included in separate plates. Each plate contains multiple replicates of mock-infected wells, virus-infection control wells and blank (medium-only) well. All plates are tested in duplicate. 50% Inhibitory concentrations are calculated based on reporter signals obtained through optical reading of 384-well plates containing serial dilutions of compounds, a normalised quantity of virus and by taking into account all relevant control wells. Approval (or not) is done according to critical ranges and settings as described in the corresponding VIRCO Standard Operating Procedure.
A more detailed description of the protocol is as follows. Samples were stored frozen. […] To confirm the genotypic pattern, genotyping (ABI-sequencing) was performed after recombination and culture of the laboratory strains by analysis of cell viability, calculation of results (dose-response curves, IC50 values), and reporting of data.

[7] = Human immunodeficiency virus 1, PBMC, 144 h
[8] = HIV-1 (A012D:M41L?/D67N/K70R/T215F/K219Q)
[9] = clinical isolate (pre) prior to long-term ZDV monotherapy, row HIV-1 (A012D), read-out: Untreated EC50
[10] = clinical isolate HIV-1 (A012D:M41L?/D67N/K70R/T215F/K219Q), read-out: Selected Varient EC50

## Cc1cn([C@H]2C[C@H](N=[N+]=[N-])[C@@H](CO)O2)c(=O)[nH]c1=O [AZT, 3′-azido-3′-deoxythymidine]
[1]
  EC90: 21 nM and 14 nM
[1]; Human immunodeficiency virus 1, PBMC
  EC90: 13 nM
[1]; [7]
  inhibition at 0.1 µM: -12.9%
  inhibition at 1 µM: 67.6%
  inhibition at 10 µM: 83.2%
  inhibition at 100 µM: 98.2%
[2]; 1 (T215Y/M41L)
  Fold-resistance: 11
[2]; (M184V/T215Y)
  Fold-resistance: 5.8
[2]; [8]
  Fold-resistance: 240
[2]; HIV-1 (D67N/K70R/T215Y/K219Q)
  Fold-resistance: 9
[2]; HIV-1 (K65R)
  Fold-resistance: 2
[2]; HIV-1 (L74V)
  Fold-resistance: 0.8
[2]; HIV-1 (M184V)
  Fold-resistance: 0.8
[2]; HIV-1 (T215Y)
  Fold-resistance: 2.5
[2]; [9]
  EC50: 1 nM
[2]; [10]
  EC50: 240 nM
[2]; molecular clone 1 (T215Y/M41L), read-out: Selected Varient EC50
  EC50: 42 nM
[2]; molecular clone (M184V/T215Y), read-out: Selected Varient EC50
  EC50: 23 nM
[2]; molecular clone HIV-1 (D67N/K70R/T215Y/K219Q), read-out: Selected Varient EC50
  EC50: 36 nM
[2]; molecular clone HIV-1 (K65R), read-out: Selected Varient EC50
  EC50: 8 nM
[2]; molecular clone HIV-1 (L74V), read-out: Selected Varient EC50
  EC50: 3 nM
[2]; molecular clone HIV-1 (M184V), read-out: Selected Varient EC50
  EC50: 3 nM
[2]; molecular clone HIV-1 (T215Y), read-out: Selected Varient EC50
  EC50: 10 nM
[2]; parent strain HIV-1 (xxLAI), row 1 (T215Y/M41L), read-out: Untreated EC50
  EC50: 4 nM
[2]; parent strain HIV-1 (xxLAI), row (M184V/T215Y), read-out: Untreated EC50
  EC50: 4 nM
[2]; parent strain HIV-1 (xxLAI), row HIV-1 (D67N/K70R/T215Y/K219Q), read-out: Untreated EC50
  EC50: 4 nM
[2]; parent strain HIV-1 (xxLAI), row HIV-1 (K65R), read-out: Untreated EC50
  EC50: 4 nM
[2]; parent strain HIV-1 (xxLAI), row HIV-1 (L74V), read-out: Untreated EC50
  EC50: 4 nM
[2]; parent strain HIV-1 (xxLAI), row HIV-1 (M184V), read-out: Untreated EC50
  EC50: 4 nM
[2]; parent strain HIV-1 (xxLAI), row HIV-1 (T215Y), read-out: Untreated EC50
  EC50: 4 nM
[3]; HIV-1 (D67N/K70R/M184V/T215Y/K219Q)
  Fold-resistance: 5
[3]; HIV-1 (D67N/K70R/T215Y/K219Q)
  Fold-resistance: 33
[3]; HIV-1 (M41L/D67N/M184V/H208Y/L210W/R211K/L214F/T215Y)
  Fold-resistance: >550
[3]; HlV-1 (M184V)
  Fold-resistance: 1.5
[3]; Human immunodeficiency virus 1, MT2, read-out: Untreated EC50
  EC50: 6 nM
[4]; HIV-1 (A-161)
  Fold-resistance: 60
[4]; HIV-1 (C-246)
  Fold-resistance: 35
[4]; HIV-1 (G-68)
  Fold-resistance: 33
[4]; HIV-1 (R-102)
  Fold-resistance: 60
[4]; HIV-1 (X-78)
  Fold-resistance: 55
[4]; Human immunodeficiency virus 1, MT4, clinical isolate (pre) prior to long-term ZDV monotherapy, row HIV-1 (A-161), read-out: Untreated EC50
  EC50: 20 nM
[4]; Human immunodeficiency virus 1, MT4, clinical isolate (pre) prior to long-term ZDV monotherapy, row HIV-1 (C-246), read-out: Untreated EC50
  EC50: 20 nM
[4]; Human immunodeficiency virus 1, MT4, clinical isolate (pre) prior to long-term ZDV monotherapy, row HIV-1 (G-68), read-out: Untreated EC50
  EC50: 20 nM
[4]; Human immunodeficiency virus 1, MT4, clinical isolate (pre) prior to long-term ZDV monotherapy, row HIV-1 (R-102), read-out: Untreated EC50
  EC50: 20 nM
[4]; Human immunodeficiency virus 1, MT4, clinical isolate (pre) prior to long-term ZDV monotherapy, row HIV-1 (X-78), read-out: Untreated EC50
  EC50: 20 nM
[4]; Human immunodeficiency virus 1, MT4, clinical isolate HIV-1 (A-161), long-term ZDV monotherapy, read-out: Selected Varient EC50
  EC50: 1200 nM
[4]; Human immunodeficiency virus 1, MT4, clinical isolate HIV-1 (C-246), long-term ZDV monotherapy, read-out: Selected Varient EC50
  EC50: 700 nM
[4]; Human immunodeficiency virus 1, MT4, clinical isolate HIV-1 (G-68), long-term ZDV monotherapy, read-out: Selected Varient EC50
  EC50: 650 nM
[4]; Human immunodeficiency virus 1, MT4, clinical isolate HIV-1 (R-102), long-term ZDV monotherapy, read-out: Selected Varient EC50
  EC50: 1200 nM
[4]; Human immunodeficiency virus 1, MT4, clinical isolate HIV-1 (X-78), long-term ZDV monotherapy, read-out: Selected Varient EC50
  EC50: 1100 nM
[5]; [8]
  Fold-resistance: 200
[5]; HIV-1 (A018C:D67N/K70R/T215Y/K219Q)
  Fold-resistance: 400
[5]; HIV-1 (A036DD:M41L/D67N/K70R/T215Y)
  Fold-resistance: 800
[5]; HIV-1 (P022C:M41L?/D67N/K70R/T215F/K219Q)
  Fold-resistance: 187
[5]; HIV-1 (P026B:M41L?/D67N/K70R/T215Y)
  Fold-resistance: 280
[5]; [9]
  EC50: 10 nM
[5]; clinical isolate (pre) prior to long-term ZDV monotherapy, row HIV-1 (A018C), read-out: Untreated EC50
  EC50: 10 nM
[5]; clinical isolate (pre) prior to long-term ZDV monotherapy, row HIV-1 (A036DD), read-out: Untreated EC50
  EC50: 7 nM
[5]; clinical isolate (pre) prior to long-term ZDV monotherapy, row HIV-1 (P022C), read-out: Untreated EC50
  EC50: 30 nM
[5]; clinical isolate (pre) prior to long-term ZDV monotherapy, row HIV-1 (P026B), read-out: Untreated EC50
  EC50: 10 nM
[5]; [10]
  EC50: 2000 nM
[5]; clinical isolate HIV-1 (A018C:D67N/K70R/T215Y/K219Q), read-out: Selected Varient EC50
  EC50: 4000 nM
[5]; clinical isolate HIV-1 (A036DD:M41L/D67N/K70R/T215Y), read-out: Selected Varient EC50
  EC50: 5500 nM
[5]; clinical isolate HIV-1 (P022C:M41L?/D67N/K70R/T215F/K219Q), read-out: Selected Varient EC50
  EC50: 5600 nM
[5]; clinical isolate HIV-1 (P026B:M41L?/D67N/K70R/T215Y), read-out: Selected Varient EC50
  EC50: 2800 nM
[6]; RT genotype D67D/N, K70R, M184V, G333E
  fold Resistance: 0.9
[6]; RT genotype D67N, K70R, K219Q/K, 181C/Y
  fold Resistance: 12
[6]; RT genotype K70R, K219Q
  fold Resistance: 5
[6]; RT genotype M41L, D67N, K70R, K103N, L210W, T215Y, K219N/K
  fold Resistance: >36
[6]; RT genotype M41L, L210L, T215Y, Y181C/Y, M184M/V
  fold Resistance: >36
[6]; RT genotype M41L, L210W, T215Y
  fold Resistance: 24
[6]; RT genotype M41L, T69S-V-T, L210W, T215Y, G333E
  fold Resistance: >65
[6]; RT genotype M41L, T215Y, M184V
  fold Resistance: 5.5
[6]; RT genotype T69G, Q151M, M184V/M
  fold Resistance: >65
[6]; RT genotype T69I, K70R, Q151M, M184V
  fold Resistance: >65
[6]; RT genotype T69S-E, M184I, T215Y
  fold Resistance: >65
[6]; RT genotype T215Y
  fold Resistance: 13.5
[6]; recombinant isolate, RT genotype K70R
  fold Resistance: 0.7
